From patent publication US20230023092A1, “TREATMENT OF DEPRESSION AND OTHER VARIOUS DISORDERS WITH PSILOCYBIN” (COMPASS […], priority 2019, published 2023)

Tested on: healthy subjects
Assay: Symptom Checklist-90 Item (SCL-90)
Type: in vivo, human
Text: In some embodiments, the Symptom Checklist-90 item (SCL-90) questionnaire is used to evaluate the safety and/or efficacy of psilocybin. The SCL-90 is a relatively brief self-report psychometric instrument designed to evaluate a broad range of psychological problems and symptoms of psychopathology. In some embodiments, the SCL-90 is used to assess somatization, obsessive-compulsive behaviors, interpersonal sensitivity, depression, anxiety, hostility, phobic anxiety, paranoid ideation, and psychoticism of a subject treated according to the methods of the disclosure. The 90 items in the questionnaire are scored on a 5-point Likert scale, indicating the rate of occurrence of the symptom during the time reference. In some embodiments, after treating according to the methods of the disclosure, a subject's SCL-90 score decreases by about 5% to about 100%, for example, by about 5%, about 10%, about 15%, about 20%, about 25%, about 30%, about 35%, about 40%, about 45%, about 50%, about 55%, about 60%, about 65%, about 70%, about 75%, about 80%, about 85%, about 90%, about 95%, or about 100%.
The Neuroticism Extraversion Openness-Five Factor Inventory (NEO-FFI) and Symptom Checklist-90 Item (SCL-90) were administered. Details of the MMRM applied to the change from baseline scores for the NEO-FFI and SCL-90 are provided below in Table 2Q.

[1] = Day 7, psilocybin 10 mg - placebo
[2] = Day 7, psilocybin 25 mg - 10 mg
[3] = Day 7, psilocybin 25 mg - placebo
[4] = Day 84, psilocybin 10 mg - placebo
[5] = Day 84, psilocybin 25 mg - 10 mg
[6] = Day 84, psilocybin 25 mg - placebo

CN(C)CCc1c[nH]c2cccc(OP(=O)(O)O)c12 [Psilocybin, psilocybin]
0.1: SCL-90-somatisation change from baseline, LS mean (Day 7, psilocybin 10 mg) | SCL-90-somatisation change from baseline, LS mean difference [1] | SCL-90 obsessive compulsive change from baseline, LS mean difference [1] | SCL-90-somatisation change from baseline, LS mean (Day 7, psilocybin 25 mg) | SCL-90 paranoid ideation change from baseline, LS mean (Day 7, psilocybin 25 mg) | SCL-90 interpersonal sensitivity change from baseline, LS mean difference [2] | SCL-90 paranoid ideation change from baseline, LS mean difference [2] | SCL-90-somatisation change from baseline, LS mean difference [3] | SCL-90 obsessive compulsive change from baseline, LS mean difference [3] | SCL-90 paranoid ideation change from baseline, LS mean difference [3] | SCL-90 depression change from baseline, LS mean (Day 84, psilocybin 10 mg) | SCL-90 paranoid ideation change from baseline, LS mean (Day 84, psilocybin 10 mg) | SCL-90 obsessive compulsive change from baseline, LS mean difference [4] | SCL-90 paranoid ideation change from baseline, LS mean difference [4] | SCL-90 depression change from baseline, LS mean (Day 84, psilocybin 25 mg) | SCL-90 paranoid ideation change from baseline, LS mean (Day 84, psilocybin 25 mg) | SCL-90 paranoid ideation change from baseline, LS mean difference [6]
0.0: SCL-90 depression change from baseline, LS mean (Day 7, psilocybin 10 mg) | SCL-90 psychoticism change from baseline, LS mean (Day 7, psilocybin 10 mg) | SCL-90 depression change from baseline, LS mean difference [1] | SCL-90 paranoid ideation change from baseline, LS mean difference [1] | SCL-90 psychoticism change from baseline, LS mean difference [1] | SCL-90 depression change from baseline, LS mean (Day 7, psilocybin 25 mg) | SCL-90 interpersonal sensitivity change from baseline, LS mean (Day 7, psilocybin 25 mg) | SCL-90 phobic anxiety change from baseline, LS mean (Day 7, psilocybin 25 mg) | SCL-90 psychoticism change from baseline, LS mean (Day 7, psilocybin 25 mg) | SCL-90 anger hostility change from baseline, LS mean difference [2] | SCL-90 anxiety change from baseline, LS mean difference [2] | SCL-90 phobic anxiety change from baseline, LS mean difference [2] | SCL-90 psychoticism change from baseline, LS mean difference [2] | SCL-90 anxiety change from baseline, LS mean difference [3] | SCL-90 depression change from baseline, LS mean difference [3] | SCL-90 interpersonal sensitivity change from baseline, LS mean difference [3] | SCL-90 phobic anxiety change from baseline, LS mean difference [3] | SCL-90 psychoticism change from baseline, LS mean difference [3] | SCL-90-somatisation change from baseline, LS mean (Day 84, psilocybin 10 mg) | SCL-90 anger hostility change from baseline, LS mean (Day 84, psilocybin 10 mg) | SCL-90 interpersonal sensitivity change from baseline, LS mean (Day 84, psilocybin 10 mg) | SCL-90 phobic anxiety change from baseline, LS mean (Day 84, psilocybin 10 mg) | SCL-90-somatisation change from baseline, LS mean difference [4] | SCL-90 depression change from baseline, LS mean difference [4] | SCL-90-somatisation change from baseline, LS mean (Day 84, psilocybin 25 mg) | SCL-90 anger hostility change from baseline, LS mean (Day 84, psilocybin 25 mg) | SCL-90 interpersonal sensitivity change from baseline, LS mean (Day 84, psilocybin 25 mg) | SCL-90 phobic anxiety change from baseline, LS mean (Day 84, psilocybin 25 mg) | SCL-90 psychoticism change from baseline, LS mean (Day 84, psilocybin 25 mg) | SCL-90-somatisation change from baseline, LS mean difference [5] | SCL-90 anxiety change from baseline, LS mean difference [5] | SCL-90 depression change from baseline, LS mean difference [5] | SCL-90 interpersonal sensitivity change from baseline, LS mean difference [5] | SCL-90 paranoid ideation change from baseline, LS mean difference [5] | SCL-90 phobic anxiety change from baseline, LS mean difference [5] | SCL-90 psychoticism change from baseline, LS mean difference [5] | SCL-90-somatisation change from baseline, LS mean difference [6] | SCL-90 depression change from baseline, LS mean difference [6] | SCL-90 obsessive compulsive change from baseline, LS mean difference [6] | SCL-90 phobic anxiety change from baseline, LS mean difference [6]
−0.1: SCL-90 obsessive compulsive change from baseline, LS mean (Day 7, psilocybin 10 mg) | SCL-90 obsessive compulsive change from baseline, LS mean (Day 7, psilocybin 25 mg) | SCL-90 anxiety change from baseline, LS mean difference [4] | SCL-90 interpersonal sensitivity change from baseline, LS mean difference [4] | SCL-90 obsessive compulsive change from baseline, LS mean (Day 84, psilocybin 25 mg) | SCL-90 obsessive compulsive change from baseline, LS mean difference [5]
−0.0: SCL-90 anger hostility change from baseline, LS mean (Day 7, psilocybin 10 mg) | SCL-90 anxiety change from baseline, LS mean (Day 7, psilocybin 10 mg) | SCL-90 interpersonal sensitivity change from baseline, LS mean (Day 7, psilocybin 10 mg) | SCL-90 paranoid ideation change from baseline, LS mean (Day 7, psilocybin 10 mg) | SCL-90 phobic anxiety change from baseline, LS mean (Day 7, psilocybin 10 mg) | SCL-90 anger hostility change from baseline, LS mean difference [1] | SCL-90 anxiety change from baseline, LS mean difference [1] | SCL-90 interpersonal sensitivity change from baseline, LS mean difference [1] | SCL-90 phobic anxiety change from baseline, LS mean difference [1] | SCL-90 anger hostility change from baseline, LS mean (Day 7, psilocybin 25 mg) | SCL-90 anxiety change from baseline, LS mean (Day 7, psilocybin 25 mg) | SCL-90-somatisation change from baseline, LS mean difference [2] | SCL-90 depression change from baseline, LS mean difference [2] | SCL-90 obsessive compulsive change from baseline, LS mean difference [2] | SCL-90 anger hostility change from baseline, LS mean difference [3] | SCL-90 anxiety change from baseline, LS mean (Day 84, psilocybin 10 mg) | SCL-90 obsessive compulsive change from baseline, LS mean (Day 84, psilocybin 10 mg) | SCL-90 psychoticism change from baseline, LS mean (Day 84, psilocybin 10 mg) | SCL-90 anger hostility change from baseline, LS mean difference [4] | SCL-90 phobic anxiety change from baseline, LS mean difference [4] | SCL-90 psychoticism change from baseline, LS mean difference [4] | SCL-90 anxiety change from baseline, LS mean (Day 84, psilocybin 25 mg) | SCL-90 anger hostility change from baseline, LS mean difference [5] | SCL-90 anger hostility change from baseline, LS mean difference [6] | SCL-90 anxiety change from baseline, LS mean difference [6] | SCL-90 interpersonal sensitivity change from baseline, LS mean difference [6] | SCL-90 psychoticism change from baseline, LS mean difference [6]
